# Test system: Metabolism protein genes
# Assay: DNA chip mRNA expression in yeast, metabolism protein genes (Table 7)
# Type: cell-based, Saccharomyces cerevisiae S288C
# Procedure: Yeast (Saccharomyces cerevisiae S288C (α SUC2mal mel gap2 CUP1)) were incubated at 25° C. on YPD medium (yeast extract 1%, polypepton 2%, glucose 2%). One of toxic chemical substances was added to the cells at logarithmic growth phase, and the cells were further incubated for two hours. Cells were cultured without any chemical substance in the same condition, and were used as control. Concentrations of the chemical substances were defined to inhibit the growth of the yeast but not lead to death.
# After completion of the incubation, the culture was centrifuged to collect the cells. To the cells, sodium acetate buffer (50 mM sodium acetate, 10 mM EDTA, 1% SDS) was added, and the mixture was shaken at 65° C. for five minutes, followed by returning to room temperature, and obtaining the supernatant, of which the procedures were repeated two times. To the supernatant, ½ amount of a solution of phenol/chloroform was added, and the mixture was centrifuged to give a supernatant, which was added with an equal amount of chloroform, and the mixture was centrifuged to give a supernatant. To the supernatant, an equal amount of isopropanol containing 0.3 M sodium acetate was added, and the mixture was allowed to stand at room temperature for 30 minutes, after which the mixture was centrifuged to give a sediment of the whole RNAs. Seventy % ethanol was added to the sediment, and the mixture was again centrifuged to give a sediment, which was then dried and dissolved in water. mRNA was isolated from the whole RNAs as followings. In view of the fact that a poly A chain is attached to the 3′ terminus of mRNA, a polynucleotide having a poly T structure which was immobilized on the surface of latex beads was used to trap the mRNA, and then the mRNA was washed and eluted with spine column (Oligotex-dT30<Super>mRNA Purification Kit, Takara). Reverse transcription of the mRNA was conducted with a reverse transcriptase (Super Script II Reverse Transcriptase; catalogue No. 18064-014, GibcoBRL) using fluorescence-labeled nucleotides to give cDNAs that were introduced with Cy3-dUTP or Cy5-dUTP during the reverse transcription.
# The labeled cDNAs were dissolved in TE buffer (10mM Tris-HCl/1 mM EDTA, pH8.0), and the solution was dropped on the DNA chip containing the whole genes of yeast (DNA Chip Research Inc. Japan) so that the cDNAs were hybridized on the DNA chip at 65° C. for over 12 hours. The fluoresces intensity of the DNA chip was read with a scanner, and the ratio relative to the fluorescence intensity resulting from the absence of chemical substance was estimated as the following, which is shown in Tables 1 to 9: […]
compound,measurement,setting,value
"[Cl][Pb][Cl] [(4), PbCl2]",The level of expressed mRNA in the presence of chemical substance/The level of expressed mRNA in the absence of chemical substance,yeast gene YJR155W,2.5
same,The level of expressed mRNA in the presence of chemical substance/The level of expressed mRNA in the absence of chemical substance,yeast gene YKL035W,1.2
same,level of expressed mRNA in the presence/in the absence of chemical substance,yeast gene YKL060C,1.0
same,The level of expressed mRNA in the presence of chemical substance/The level of expressed mRNA in the absence of chemical substance,yeast gene YKL091C,2.6
same,The level of expressed mRNA in the presence of chemical substance/The level of expressed mRNA in the absence of chemical substance,yeast gene YKL104C,1.2
same,level of expressed mRNA in the presence/in the absence of chemical substance,yeast gene YKL148C,0.7
same,The level of expressed mRNA in the presence of chemical substance/The level of expressed mRNA in the absence of chemical substance,yeast gene YKL152C,0.9
same,level of expressed mRNA in the presence/in the absence of chemical substance,yeast gene YKL157W,1.3
same,The level of expressed mRNA in the presence of chemical substance/The level of expressed mRNA in the absence of chemical substance,yeast gene YKL213C,1.3
same,The level of expressed mRNA in the presence of chemical substance/The level of expressed mRNA in the absence of chemical substance,yeast gene YKL215C,0.8
same,level of expressed mRNA in the presence/in the absence of chemical substance,yeast gene YKR034W,4.7
same,The level of expressed mRNA in the presence of chemical substance/The level of expressed mRNA in the absence of chemical substance,yeast gene YLL058W,0.9
same,level of expressed mRNA in the presence/in the absence of chemical substance,yeast gene YLR006C,6.2
same,level of expressed mRNA in the presence/in the absence of chemical substance,yeast gene YLR044C,0.9
same,level of expressed mRNA in the presence/in the absence of chemical substance,yeast gene YLR056W,0.8
same,level of expressed mRNA in the presence/in the absence of chemical substance,yeast gene YLR058C,2.6
same,level of expressed mRNA in the presence/in the absence of chemical substance,yeast gene YLR081W,3.6
same,level of expressed mRNA in the presence/in the absence of chemical substance,yeast gene YLR089C,0.9
same,The level of expressed mRNA in the presence of chemical substance/The level of expressed mRNA in the absence of chemical substance,yeast gene YLR180W,1.0
same,The level of expressed mRNA in the presence of chemical substance/The level of expressed mRNA in the absence of chemical substance,yeast gene YLR273C,2.4
same,level of expressed mRNA in the presence/in the absence of chemical substance,yeast gene YLR284C,1.9
same,The level of expressed mRNA in the presence of chemical substance/The level of expressed mRNA in the absence of chemical substance,yeast gene YLR299W,1.3
same,The level of expressed mRNA in the presence of chemical substance/The level of expressed mRNA in the absence of chemical substance,yeast gene YLR300W,1.0
same,level of expressed mRNA in the presence/in the absence of chemical substance,yeast gene YLR304C,0.7
same,The level of expressed mRNA in the presence of chemical substance/The level of expressed mRNA in the absence of chemical substance,yeast gene YLR307W,3.3
same,The level of expressed mRNA in the presence of chemical substance/The level of expressed mRNA in the absence of chemical substance,yeast gene YLR348C,1.2
same,level of expressed mRNA in the presence/in the absence of chemical substance,yeast gene YLR354C,1.5
same,level of expressed mRNA in the presence/in the absence of chemical substance,yeast gene YLR372W,0.8
same,level of expressed mRNA in the presence/in the absence of chemical substance,yeast gene YML022W,1.1
same,The level of expressed mRNA in the presence of chemical substance/The level of expressed mRNA in the absence of chemical substance,yeast gene YML054C,3.4
same,The level of expressed mRNA in the presence of chemical substance/The level of expressed mRNA in the absence of chemical substance,yeast gene YML070W,1.9
same,The level of expressed mRNA in the presence of chemical substance/The level of expressed mRNA in the absence of chemical substance,yeast gene YML100W,1.4
same,The level of expressed mRNA in the presence of chemical substance/The level of expressed mRNA in the absence of chemical substance,yeast gene YMR008C,1.0
same,level of expressed mRNA in the presence/in the absence of chemical substance,yeast gene YMR011W,5.5
same,level of expressed mRNA in the presence/in the absence of chemical substance,yeast gene YMR015C,0.9
same,The level of expressed mRNA in the presence of chemical substance/The level of expressed mRNA in the absence of chemical substance,yeast gene YMR020W,1.7
same,level of expressed mRNA in the presence/in the absence of chemical substance,yeast gene YMR083W,1.1
same,The level of expressed mRNA in the presence of chemical substance/The level of expressed mRNA in the absence of chemical substance,yeast gene YMR105C,4.2
same,The level of expressed mRNA in the presence of chemical substance/The level of expressed mRNA in the absence of chemical substance,yeast gene YMR189W,2.8
same,level of expressed mRNA in the presence/in the absence of chemical substance,yeast gene YMR205C,0.8
same,level of expressed mRNA in the presence/in the absence of chemical substance,yeast gene YMR261C,0.8
same,The level of expressed mRNA in the presence of chemical substance/The level of expressed mRNA in the absence of chemical substance,yeast gene YMR271C,2.0
same,The level of expressed mRNA in the presence of chemical substance/The level of expressed mRNA in the absence of chemical substance,yeast gene YMR296C,2.6
same,level of expressed mRNA in the presence/in the absence of chemical substance,yeast gene YMR323W,1.1
same,The level of expressed mRNA in the presence of chemical substance/The level of expressed mRNA in the absence of chemical substance,yeast gene YNL012W,0.8
same,level of expressed mRNA in the presence/in the absence of chemical substance,yeast gene YNL025C,12.8
same,The level of expressed mRNA in the presence of chemical substance/The level of expressed mRNA in the absence of chemical substance,yeast gene YNL045W,1.3
same,The level of expressed mRNA in the presence of chemical substance/The level of expressed mRNA in the absence of chemical substance,yeast gene YNL104C,0.9
same,The level of expressed mRNA in the presence of chemical substance/The level of expressed mRNA in the absence of chemical substance,yeast gene YNL106C,1.5
same,The level of expressed mRNA in the presence of chemical substance/The level of expressed mRNA in the absence of chemical substance,yeast gene YNL169C,1.2
same,level of expressed mRNA in the presence/in the absence of chemical substance,yeast gene YNL192W,1.6
same,The level of expressed mRNA in the presence of chemical substance/The level of expressed mRNA in the absence of chemical substance,yeast gene YNL231C,0.5
same,The level of expressed mRNA in the presence of chemical substance/The level of expressed mRNA in the absence of chemical substance,yeast gene YNL322C,0.8
same,The level of expressed mRNA in the presence of chemical substance/The level of expressed mRNA in the absence of chemical substance,yeast gene YNL331C,1.0
same,The level of expressed mRNA in the presence of chemical substance/The level of expressed mRNA in the absence of chemical substance,yeast gene YNL332W,2.0
same,The level of expressed mRNA in the presence of chemical substance/The level of expressed mRNA in the absence of chemical substance,yeast gene YNR019W,1.2
same,The level of expressed mRNA in the presence of chemical substance/The level of expressed mRNA in the absence of chemical substance,yeast gene YNR033W,1.0
same,The level of expressed mRNA in the presence of chemical substance/The level of expressed mRNA in the absence of chemical substance,yeast gene YNR059W,1.4
same,The level of expressed mRNA in the presence of chemical substance/The level of expressed mRNA in the absence of chemical substance,yeast gene YOL058W,0.9
same,level of expressed mRNA in the presence/in the absence of chemical substance,yeast gene YOL086C,1.1
same,level of expressed mRNA in the presence/in the absence of chemical substance,yeast gene YOL108C,1.9
same,level of expressed mRNA in the presence/in the absence of chemical substance,yeast gene YOL116W,2.8
same,The level of expressed mRNA in the presence of chemical substance/The level of expressed mRNA in the absence of chemical substance,yeast gene YOL126C,1.6
same,The level of expressed mRNA in the presence of chemical substance/The level of expressed mRNA in the absence of chemical substance,yeast gene YOL153C,3.9
same,level of expressed mRNA in the presence/in the absence of chemical substance,yeast gene YOL156W,1.1
same,The level of expressed mRNA in the presence of chemical substance/The level of expressed mRNA in the absence of chemical substance,yeast gene YOL165C,0.9
same,level of expressed mRNA in the presence/in the absence of chemical substance,yeast gene YOR002W,0.9
same,level of expressed mRNA in the presence/in the absence of chemical substance,yeast gene YOR085W,1.0
same,The level of expressed mRNA in the presence of chemical substance/The level of expressed mRNA in the absence of chemical substance,yeast gene YOR099W,1.3
same,level of expressed mRNA in the presence/in the absence of chemical substance,yeast gene YOR103C,1.8
same,level of expressed mRNA in the presence/in the absence of chemical substance,yeast gene YOR108W,0.6
same,level of expressed mRNA in the presence/in the absence of chemical substance,yeast gene YOR128C,2.1
same,The level of expressed mRNA in the presence of chemical substance/The level of expressed mRNA in the absence of chemical substance,yeast gene YOR130C,1.0
same,level of expressed mRNA in the presence/in the absence of chemical substance,yeast gene YOR142W,1.0
same,level of expressed mRNA in the presence/in the absence of chemical substance,yeast gene YOR176W,0.9
same,level of expressed mRNA in the presence/in the absence of chemical substance,yeast gene YOR178C,2.3
same,level of expressed mRNA in the presence/in the absence of chemical substance,yeast gene YOR251C,1.8
same,The level of expressed mRNA in the presence of chemical substance/The level of expressed mRNA in the absence of chemical substance,yeast gene YOR336W,1.0
same,The level of expressed mRNA in the presence of chemical substance/The level of expressed mRNA in the absence of chemical substance,yeast gene YOR347C,2.2
same,level of expressed mRNA in the presence/in the absence of chemical substance,yeast gene YOR348C,2.0
same,The level of expressed mRNA in the presence of chemical substance/The level of expressed mRNA in the absence of chemical substance,yeast gene YPL017C,1.0
same,level of expressed mRNA in the presence/in the absence of chemical substance,yeast gene YPL028W,0.9
same,level of expressed mRNA in the presence/in the absence of chemical substance,yeast gene YPL057C,3.1
same,level of expressed mRNA in the presence/in the absence of chemical substance,yeast gene YPL135W,1.2
same,level of expressed mRNA in the presence/in the absence of chemical substance,yeast gene YPL148C,2.3
same,The level of expressed mRNA in the presence of chemical substance/The level of expressed mRNA in the absence of chemical substance,yeast gene YPR026W,1.3
same,level of expressed mRNA in the presence/in the absence of chemical substance,yeast gene YPR113W,1.3
same,level of expressed mRNA in the presence/in the absence of chemical substance,yeast gene YPR165W,1.0
same,The level of expressed mRNA in the presence of chemical substance/The level of expressed mRNA in the absence of chemical substance,yeast gene YPR167C,0.8
same,level of expressed mRNA in the presence/in the absence of chemical substance,yeast gene YPR183W,0.8
